What was measured:
Format in all cases: in vivo
[1] = tested on: Meloidogyne incognita; test: Meloidogyne incognita test; conditions: 336 h, lettuce, after 14 days, read-out: nematicidal efficacy (formation of galls)
Method in brief: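 Gall formation on lettuce roots scored after 14 days: 0% means gall count equals untreated control, 100% means none. Sand vessels held the compound (acetone concentrate diluted in water), southern root-knot nematode egg/larvae suspension and lettuce seeds.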

[2] = tested on: Myzus persicae; test: Myzus persicae spray test (Chinese cabbage leaf discs); conditions: foliar, 120 h, after 5-6 days, read-out: efficacy
Method in brief: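 Formulated compound in acetone/dimethylformamide, diluted in water with 1000 ppm emulsifier, was sprayed onto Brassica pekinensis leaf discs carrying mixed-stage Myzus persicae. Percent mortality was read 5-6 days later (0% = no aphids killed, 100% = all killed).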

[3] = tested on: Myzus persicae; test: Myzus persicae oral test; conditions: 120 h, 20 ppm, oral uptake, after 5 days, read-out: efficacy
Method in brief: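 Aphids of mixed ages imbibe, through parafilm, compound solution (acetone stock, water-diluted) combined with sugar-supplemented IPL41 medium to 200 μl. Efficacy read at day 5 as percent killed, 0% meaning no deaths.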

SMILES | pest or weed control at 20 ppm [1] [%] | pest or weed control at 100 g/ha ([2]; 100 g/ha) [%] | pest or weed control at 20 ppm [3] [%] | pest or weed control at 500 g/ha [2] [%]
CCc1[nH]c(-c2cccc(C(C)C)c2)nc1C(=O)NS(=O)(=O)c1ccccc1Cl [Example 613] | 90 | 90 | 100 | 
Cn1cc(C(=O)NS(=O)(=O)c2ccc(Cl)cc2)nc1-c1c(Cl)cccc1Cl [Example 43] | 100 |  | 90 | 90
Cn1cc(C(=O)NS(=O)(=O)c2sccc2Br)nc1-c1ccccc1Cl [Example 421] | 90 |  | 100 | 100
COc1ccccc1S(=O)(=O)NC(=O)c1cn(C)c(-c2cccc(F)c2F)n1 [Example 528] | 90 |  | 100 | 100
Cn1cc(C(=O)NS(=O)(=O)c2ccccc2OC(F)(F)F)nc1-c1ccccc1Cl [Example 55] | 90 |  | 100 | 90
Cc1csc(S(=O)(=O)NC(=O)c2cn(C)c(-c3c(F)cccc3F)n2)c1 [Example 350] | 90 |  | 90 | 100
Cn1cc(C(=O)NS(=O)(=O)c2ccccc2Cl)nc1-c1cc(F)ccc1F [Example 515] | 90 |  | 100 | 90
Cn1cc(C(=O)NS(=O)(=O)c2ccccc2Cl)nc1-c1sccc1Cl [Example 547] | 100 |  | 90 | 90
Cc1[nH]c(-c2ccccc2Cl)nc1C(=O)NS(=O)(=O)c1ccccc1Cl [Example 238] | 100 |  | 100 | 100
COc1ccc(Cl)cc1S(=O)(=O)NC(=O)c1cn(C)c(-c2c(F)cccc2F)n1 [Example 393] | 90 |  | 100 | 100
Cn1cc(C(=O)NS(=O)(=O)c2cccc(Cl)c2Cl)nc1-c1ccccc1Cl [Example 38] | 100 |  | 100 | 90
CCc1ccccc1S(=O)(=O)NC(=O)c1cn(C)c(-c2cccc3ccccc23)n1 [Example 503] | 90 |  | 100 | 90
CC(C)S(=O)(=O)NC(=O)c1cn(C)c(-c2c(Cl)cccc2Cl)n1 [Example 81] | 100 |  | 90 | 90
CSc1cccc(Cl)c1S(=O)(=O)NC(=O)c1cn(C)c(-c2ccccc2Cl)n1 [Example 422] | 90 |  | 100 | 90
Cn1cc(C(=O)NS(=O)(=O)c2cccc3c2OCC3)nc1-c1c(F)cccc1F [Example 317] | 90 |  | 100 | 90
Cc1cc(C(=O)NS(=O)(=O)c2ccccc2Cl)nn1-c1ccccc1Cl [Example 271] | 100 |  | 100 | 100
COc1cc(C(=O)NS(=O)(=O)c2c(Cl)cccc2Cl)nn1-c1ccccc1Cl [Example 270] | 100 |  | 100 | 90
Cn1cc(C(=O)NS(=O)(=O)c2ccc(Cl)cc2)nc1-c1c(F)cccc1Cl [Example 114] | 100 |  | 100 | 90
Cn1cc(C(=O)NS(=O)(=O)c2cscc2Br)nc1-c1c(F)cccc1F [Example 183] | 100 |  | 100 | 100
Cn1cc(C(=O)NS(=O)(=O)c2c(Cl)cccc2C(F)(F)F)nc1-c1ncccc1Cl [Example 600] | 100 |  | 100 | 100
COc1ccc(Cl)c(S(=O)(=O)NC(=O)c2cn(C)c(-c3cccc(Cl)c3Cl)n2)c1 [Example 554] | 90 |  | 100 | 90
Cc1cc(S(=O)(=O)NC(=O)c2cn(C)c(-c3c(F)cccc3F)n2)c(C)s1 [Example 182] | 100 |  | 100 | 90
CCCc1ccccc1S(=O)(=O)NC(=O)c1cn(C)c(-c2c(F)cccc2F)n1 [Example 403] | 90 |  | 100 | 100

SMILES | pest or weed control at 20 ppm [1] [%] | pest or weed control at 100 g/ha ([2]; 100 g/ha) [%] | pest or weed control at 20 ppm [3] [%] | pest or weed control at 500 g/ha [2] [%]
Cn1cc(C(=O)NS(=O)(=O)c2sccc2Br)nc1-c1c(F)cccc1F [Example 354] | 90 |  | 100 | 100
Cn1cc(C(=O)NS(=O)(=O)c2ccc(Cl)cc2)nc1-c1ccccc1F [Example 51] | 100 |  | 90 | 90
CCn1cc(C(=O)NS(=O)(=O)c2ccccc2Cl)nc1-c1ccccc1Cl [Example 67] | 90 |  | 100 | 90
Cn1cc(C(=O)NS(=O)(=O)c2ccccc2Cl)nc1-c1ccccc1Cl [Example 225] | 80 |  | 100 | 100
COc1ccc(C)c(S(=O)(=O)NC(=O)c2cn(C)c(-c3ncccc3F)n2)c1 [Example 593] | 90 |  | 100 | 100
Cn1cc(C(=O)NS(=O)(=O)c2cccc(F)c2F)nc1-c1c(F)cccc1F [Example 320] | 90 |  | 100 | 100
Cc1cc(C(=O)NS(=O)(=O)c2ccccc2Cl)nn1-c1ncccc1Cl [Example 273] | 90 |  | 100 | 100
Cn1cc(C(=O)NS(=O)(=O)Cc2ccccc2Cl)nc1-c1ccccc1Cl [Example 62] | 90 |  | 100 | 90
COc1ccc(F)cc1S(=O)(=O)NC(=O)c1cn(C)c(-c2ncccc2F)n1 [Example 596] | 90 |  | 100 | 100
Cn1cc(C(=O)NS(=O)(=O)c2sc(Cl)cc2Br)nc1-c1ccccc1Cl [Example 426] | 90 |  | 100 | 100
Cn1cc(C(=O)NS(=O)(=O)c2ccccc2Br)nc1-c1cccc(Cl)c1Cl [Example 555] | 90 |  | 100 | 90
Cc1ccsc1S(=O)(=O)NC(=O)c1cn(C)c(-c2cccc(Cl)c2Cl)n1 [Example 560] | 100 |  | 100 | 100
CCSc1cccc(Cl)c1S(=O)(=O)NC(=O)c1cn(C)c(-c2c(F)cccc2F)n1 [Example 179] | 90 |  | 100 | 90
COc1ccc(Br)cc1S(=O)(=O)NC(=O)c1cn(C)c(-c2c(F)cccc2Cl)n1 [Example 156] | 90 |  | 100 | 100
Cn1cc(C(=O)NS(=O)(=O)c2cc(Cl)cnc2Cl)nc1-c1c(F)cccc1F [Example 343] | 90 |  | 90 | 100
Cc1noc(C)c1S(=O)(=O)NC(=O)c1cn(C)c(-c2c(F)cccc2F)n1 [Example 358] | 90 |  | 100 | 100
COc1ccc(Cl)c(S(=O)(=O)NC(=O)c2cn(C)c(-c3ccccc3C)n2)c1 [Example 98] | 90 |  | 100 | 90
Cn1nc(C(=O)NS(=O)(=O)c2ccccc2Br)nc1-c1c(F)cccc1F [Example 158] | 90 |  | 100 | 100
Cn1cc(C(=O)NS(=O)(=O)c2ccccc2Cl)nc1-c1cccc(Cl)c1Cl [Example 513] | 100 |  | 100 | 100
Cc1c(C(=O)NS(=O)(=O)c2ccccc2)nc(-c2ccccc2Cl)n1C [Example 39] | 90 |  | 90 | 90
CCc1ccsc1S(=O)(=O)NC(=O)c1cn(C)c(-c2ncccc2Cl)n1 [Example 605] | 90 |  | 100 | 100
Cn1cc(C(=O)NS(=O)(=O)c2cc(C(F)(F)F)ccc2Cl)nc1-c1c(F)cccc1F [Example 453] | 90 |  | 100 | 90
Cn1cc(C(=O)NS(=O)(=O)c2ccccc2Cl)nc1-c1cccc(F)c1F [Example 512] | 90 |  | 100 | 90
